Here are results for three compounds from patent US20260001875A1, “AMINOPYRIMIDINYL DERIVATIVES FOR THE TREATMENT OF PARKINSON'S DISEASE” (UNIVERSITY OF DUNDEE, priority 2022, published 2026).

For assay [1], the target named is T1, LRRK2^WT (Mus musculus, UniProt Q5S006).
T1 construct: endogenous in cells; host or cells: primary wild-type mouse embryonic fibroblasts (MEFs)
Description: Western blot LRRK2 degradation in WT MEFs. It is filed as cell-based. The conditions noted are these: dose response, 4 h treatment; for Dmax: read-out: Dmax on WT MEFs. The procedure: Western blot degradation assays for the LRRK2 protacs were performed with WT and PD-associated LRRK2 [G2019S] mouse embryonic fibroblasts (MEFs). The second-generation PROTACs were tested in parallel with the first generation PROTACs SD75, SD82, and SD100. The compounds were tested at 33 nM or […] concentrations for 4 hours or 24 hours, running two biological replicates per condition and achieving quantifications representative of both replicates. Analysis by quantitative immunoblotting was performed with readouts of the total LRRK2 (antibody recognizes epitope in C-terminus of protein), Rab10 pThr73 (physiological substrate) and LRRK2 pSer935 (biomarker phosphorylation site).
(§1) Primary MEFs were generated as described in a previous study (Wiggin et al., Mol. Cell Biol. 2002 April; 22(8):2871-81.). Briefly, the uterine horn was collected from adult female mice at day E12.5 and transferred to a 10 cm tissue culture dish containing cold PBS. Two forceps were used to tear the yolk sacs to isolate each embryo. Forceps were cleaned thoroughly with 70% ethanol between each embryo isolation. The embryos were culled, and a tissue piece was collected in a PCR tube for genotyping. The red tissue of the embryo, which grows to become the heart and liver, was removed. The remainder of the embryo was minced with a scalpel blade and incubated with 7.5 ml trypsin-EDTA solution for 10 minutes in a 37° C. tissue culture CO2 incubator. The dish was removed from the incubator and checked under a light microscope for single cells. 7.5 ml complete media was added to the trypsinised cells, and the cell suspension was transferred to a 15 ml Falcon tube, centrifuged at 1200 rpm for 5 minutes at room temperature. The trypsin was aspirated, the cell pellet was resuspended in 5 ml fresh complete media, and the cell suspension was plated in a 60 mm tissue culture dish and incubated in a 37° C., 5% CO2 tissue culture incubator. The MEFs at this stage were considered as passage 0 and were passaged and expanded for experimental use once the genotype was confirmed by allelic sequencing and immunoblotting. MEFs were cultured in Dulbecco's modified Eagle medium (DMEM) containing 10% (v/v) fetal bovine serum (FBS), 2 mM L-glutamine, 100 U/ml penicillin, and 100 μg/ml streptomycin supplemented with 1× non-essential amino acids and 1 mM sodium pyruvate.
Culturing and passaging of adherent cell lines were carried out using aseptic technique in CL1 or CL2 (for PBMC isolation) biological safety cabinets. All cells were incubated in a 37° C. incubator with 5% CO2. Cell lines were regularly tested for mycoplasma contamination. For western blot assay, the cells were seeded in 6-well plates. After treating with testing compounds at indicated concentrations and time period, the media was removed and the cells were washed with PBS and lysed in 100 μl ice-cold complete lysis buffer containing 50 mM Tris-HCl pH 7.4, 1 mM EGTA, 10 mM 2-glycerophosphate, 50 mM sodium fluoride, 5 mM sodium pyrophosphate, 270 mM sucrose, supplemented with 1 μg/ml microcystin-LR, 1 mM sodium orthovanadate, complete EDTA-free protease inhibitor cocktail (Roche) and 1% (v/v) Triton X-100. The cells were immediately placed on ice and were scraped and collected into 1.5 ml Eppendorf tubes. Cell lysates were incubated on ice for 10 minutes prior to centrifugation at 15,000 g at 4° C. for 15 minutes. The cell pellet was discarded, and supernatant was collected for analysis by quantitative immunoblotting. For long term storage, the supernatant was flash frozen and stored at −80° C. Protein concentrations of cell lysates were determined using the Bradford assay.
Cell lysates containing a quarter of a volume of 4× NuPAGE LDS sample buffer (NP0007) supplemented with 5% β-mercaptoethanol, were heated at 95° C. for 5 minutes. […]
In general terms: Immunoblotting shows a protein as a band on a membrane.

The target in assay [2] is T2, LRRK2^G2019S (Mus musculus, UniProt Q5S006, G2019S).
T2 construct: endogenous in cells; host or cells: LRRK2[G2019S] mouse embryonic fibroblasts (MEFs)
T2 sequence (Q5S006 whole entry G2019S): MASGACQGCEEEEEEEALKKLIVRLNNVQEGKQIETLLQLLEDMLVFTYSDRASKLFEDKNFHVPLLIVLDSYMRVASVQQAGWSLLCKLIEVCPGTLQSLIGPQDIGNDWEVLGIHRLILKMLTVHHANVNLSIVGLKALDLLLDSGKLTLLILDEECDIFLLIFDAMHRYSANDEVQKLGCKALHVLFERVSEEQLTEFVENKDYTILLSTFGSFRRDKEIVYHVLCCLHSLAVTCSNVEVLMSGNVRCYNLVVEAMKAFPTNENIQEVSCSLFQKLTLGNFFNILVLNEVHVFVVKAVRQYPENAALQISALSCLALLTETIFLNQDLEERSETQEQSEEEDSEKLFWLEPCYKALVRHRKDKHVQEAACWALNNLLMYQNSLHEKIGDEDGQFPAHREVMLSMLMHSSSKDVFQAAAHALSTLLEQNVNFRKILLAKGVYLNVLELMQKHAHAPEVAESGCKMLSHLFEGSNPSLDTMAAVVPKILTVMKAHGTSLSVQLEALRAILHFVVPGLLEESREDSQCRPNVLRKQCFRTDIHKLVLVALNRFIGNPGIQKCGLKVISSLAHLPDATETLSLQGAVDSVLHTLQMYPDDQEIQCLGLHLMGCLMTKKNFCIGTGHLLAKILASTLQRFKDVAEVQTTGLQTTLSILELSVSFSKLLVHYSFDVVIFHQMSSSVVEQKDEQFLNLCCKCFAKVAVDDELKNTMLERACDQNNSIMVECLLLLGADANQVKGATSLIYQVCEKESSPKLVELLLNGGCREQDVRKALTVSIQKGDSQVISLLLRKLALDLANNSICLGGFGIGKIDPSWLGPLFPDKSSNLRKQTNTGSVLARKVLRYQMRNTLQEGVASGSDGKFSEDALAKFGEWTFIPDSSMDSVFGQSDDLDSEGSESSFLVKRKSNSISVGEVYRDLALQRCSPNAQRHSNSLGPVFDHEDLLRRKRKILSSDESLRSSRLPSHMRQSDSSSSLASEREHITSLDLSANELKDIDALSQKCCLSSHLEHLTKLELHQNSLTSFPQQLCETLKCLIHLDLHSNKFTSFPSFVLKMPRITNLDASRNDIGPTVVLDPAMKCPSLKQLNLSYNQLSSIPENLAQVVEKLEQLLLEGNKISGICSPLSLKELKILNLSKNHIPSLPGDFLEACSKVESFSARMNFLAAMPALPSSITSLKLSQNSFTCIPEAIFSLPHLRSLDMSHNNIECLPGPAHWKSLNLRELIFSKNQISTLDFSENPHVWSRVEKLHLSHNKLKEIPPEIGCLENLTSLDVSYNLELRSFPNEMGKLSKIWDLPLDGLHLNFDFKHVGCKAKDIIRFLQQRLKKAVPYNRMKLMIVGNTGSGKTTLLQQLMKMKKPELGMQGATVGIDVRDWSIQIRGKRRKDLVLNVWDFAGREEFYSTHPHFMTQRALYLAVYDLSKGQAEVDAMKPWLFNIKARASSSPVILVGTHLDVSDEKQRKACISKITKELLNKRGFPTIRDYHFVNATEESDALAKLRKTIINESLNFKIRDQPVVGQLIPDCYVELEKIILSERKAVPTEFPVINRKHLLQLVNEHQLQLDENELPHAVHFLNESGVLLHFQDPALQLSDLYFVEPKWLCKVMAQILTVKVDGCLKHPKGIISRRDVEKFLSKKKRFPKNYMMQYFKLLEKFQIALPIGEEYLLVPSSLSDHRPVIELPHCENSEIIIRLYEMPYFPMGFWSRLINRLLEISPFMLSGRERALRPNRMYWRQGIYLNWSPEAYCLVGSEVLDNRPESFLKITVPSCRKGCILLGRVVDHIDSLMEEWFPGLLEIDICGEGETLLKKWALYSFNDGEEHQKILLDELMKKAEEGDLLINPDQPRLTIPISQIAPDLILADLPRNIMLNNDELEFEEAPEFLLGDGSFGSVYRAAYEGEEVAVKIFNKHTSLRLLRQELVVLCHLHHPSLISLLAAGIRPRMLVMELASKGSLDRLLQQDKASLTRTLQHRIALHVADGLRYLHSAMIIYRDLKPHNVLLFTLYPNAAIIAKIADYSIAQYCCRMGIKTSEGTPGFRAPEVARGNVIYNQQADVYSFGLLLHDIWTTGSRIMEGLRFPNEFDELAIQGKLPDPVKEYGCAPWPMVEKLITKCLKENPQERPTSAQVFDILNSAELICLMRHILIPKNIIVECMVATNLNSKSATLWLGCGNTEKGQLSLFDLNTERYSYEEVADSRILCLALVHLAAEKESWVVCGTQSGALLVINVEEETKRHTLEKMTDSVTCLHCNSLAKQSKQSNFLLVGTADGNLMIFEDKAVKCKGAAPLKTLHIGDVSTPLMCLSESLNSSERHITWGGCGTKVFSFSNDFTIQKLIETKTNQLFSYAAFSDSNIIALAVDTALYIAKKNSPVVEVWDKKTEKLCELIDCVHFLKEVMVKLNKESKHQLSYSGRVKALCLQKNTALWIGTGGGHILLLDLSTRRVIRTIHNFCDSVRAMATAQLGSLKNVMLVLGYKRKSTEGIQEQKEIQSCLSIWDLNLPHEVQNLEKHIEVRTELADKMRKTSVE
Description: Western blot LRRK2 degradation in LRRK2^G2019S MEFs. Format: cell-based. The conditions noted are these: dose response, 4 h treatment; for Dmax: read-out: Dmax on G2019S MEFs. The procedure:
The second-generation PROTACs were tested in parallel with the first generation PROTACs SD75, SD82, and SD100. The compounds were tested at 33 nM or […] concentrations for 4 hours or 24 hours, running two biological replicates per condition and achieving quantifications representative of both replicates. Analysis by quantitative immunoblotting was performed with readouts of the total LRRK2 (antibody recognizes epitope in C-terminus of protein), Rab10 pThr73 (physiological substrate) and LRRK2 pSer935 (biomarker phosphorylation site).
as §1
Culturing and passaging of adherent cell lines were carried out using aseptic technique in CL1 or CL2 (for PBMC isolation) biological safety cabinets. All cells were incubated in a 37° C. incubator with 5% CO2. Cell lines were regularly tested for mycoplasma contamination. For western blot assay, the cells were seeded in 6-well plates. […] The cells were immediately placed on ice and were scraped and collected into 1.5 ml Eppendorf tubes. Cell lysates were incubated on ice for 10 minutes prior to centrifugation at 15,000 g at 4° C. for 15 minutes. The cell pellet was discarded, and supernatant was collected for analysis by quantitative immunoblotting. For long term storage, the supernatant was flash frozen and stored at −80° C. Protein concentrations of cell lysates were determined using the Bradford assay.
Cell lysates containing a quarter of a volume of 4× NuPAGE LDS sample buffer (NP0007) supplemented with 5% β-mercaptoethanol, were heated at 95° C. for 5 minutes. 15 to 20 μg of samples were loaded onto pre-cast 4-12% Bis-Tris midi 20W or 26W gels (Thermofisher Scientific®, Cat #WG1402BOX or WG1403BOX) and resolved at 130 V for 2 hours with NuPAGE MOPS SDS running buffer (Thermofisher Scientific® Cat #NP0001-02). Proteins were electrophoretically transferred onto a 0.45 μm nitrocellulose membrane (GE Healthcare, Amersham Protran® Supported 0.45 mm NC) at 90 V for 90 min on ice in transfer buffer (48 mM Tris base and 39 mM glycine supplemented with 20% methanol). The transferred membrane was blocked with 5% (w/v) skim milk powder dissolved in tris-buffered saline with tween (TBS-T) (50 mM Tris base, 150 mM sodium chloride (NaCl), 0.1% (v/v) Tween-20) at room temperature for 1 hour.

Assay [3] concerns Rab10 pThr73. Kind of assay: Rab10 Thr73 dephosphorylation (immunoblot) in WT MEFs. It is filed as cell-based, mouse. The conditions noted are these: Mus musculus; for inhibition at 0.033 µM / inhibition at 1 µM: read-out: pRab10 inhibited in WT MEFs; for EC50: dose response, 4 h treatment, read-out: WT MEFs pRab10-dephosphrylation EC50. In short, it runs like this:
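Wild-type mouse embryonic fibroblasts in 6-well plates were treated with LRRK2 PROTACs, with two biological replicates per condition. Cells were washed in PBS and lysed on ice in buffer containing phosphatase and protease inhibitors plus 1% Triton X-100, then clarified at 15,000 g. Rab10 Thr73 phosphorylation was measured by quantitative immunoblotting of 15 to 20 μg protein on 4-12% Bis-Tris gels.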

In assay [4] the test system is Rab10 pThr73. Kind of assay: Rab10 Thr73 dephosphorylation (immunoblot) in LRRK2^G2019S MEFs. It is filed as cell-based. The conditions noted are these: Mus musculus, read-out: pRab10 inhibited in LRRK2^G2019S MEFs.
Assay [5] deals with Rab10 pThr73. Described as above. The conditions noted are these: Mus musculus; for inhibition at 1 µM: read-out: pRab10 inhibited in LRRK2^G2019S MEFs; for EC50: dose response, 4 h treatment, read-out: G2019S MEFs-pRab10-dephosphorylation EC50. It is filed as cell-based, mouse.

T1 sequence (Q5S006 whole entry): as the sequence (Q5S006 whole entry G2019S) above, with S2019G counted along it

In general, DC50 refers to the concentration at which degradation of the target reaches its halfway point. Read a low DC50 as degradation at low concentration. As a reminder, the Dmax is the greatest extent of degradation seen. By EC50 is commonly meant the concentration at which the effect is half-maximal. Consider `CNc1nc(Nc2ccc(C(=O)N3CCN(C[C@H]4CC[C@H](CSC(C)(C)[C@H](NC(=O)C5(F)CC5)C(=O)N5C[C@H](O)CC5C(=O)NCc5ccc(-c6scnc6C)cc5C)CC4)CC3)cc2OC)ncc1Cl` (stereo partly drawn) [XL02048, (2S,4R)-1-((R)-3-((((1R,4R)-4-((4-(4-((5-chloro-4-(methylamino)pyrimidin-2-yl)amino)-3-methoxybenzoyl)piperazin-1-yl)methyl)cyclohexyl)methyl)thio)-2-(1-fluorocyclopropane-1-carboxamido)-3-methylbutanoyl)-4-hydroxy-N-(2-methyl-4-(4-methylthiazol-5-yl)benzyl)pyrrolidine-2-carboxamide], for which the DC50 in assay [1] turned out to be 46 nM; in assay [2], 23 nM. In addition, the figures for the Dmax in assay [1] and in assay [2] were 81.5% and 83.5%, respectively. Moreover, the inhibition at 0.033 µM in assay [3] (33 nM/4 h treatment) lay in the range of 0 to 70%; in assay [3] (33 nM/24 h treatment) it was 0 to 80%; in assay [4] (33 nM/4 h treatment) it was 0 to 90%; in assay [4] (33 nM/24 h treatment), 30 to 90%. The inhibition at 1 µM was 80 to 100% in assay [3] (1 μM/4 h treatment), 80 to 100% in assay [3] (1 μM/24 h treatment), 10 to 100% in assay [5] (1 μM/4 h treatment) and 80 to 100% in assay [5] (1 μM/24 h treatment). The EC50 is 72 nM in assay [3] and 53 nM in assay [5].
Take `CNc1nc(Nc2ccc(C(=O)N3CCN(C[C@H]4CC[C@H](CSC(C)(C)[C@H](NC(=O)C5(F)CC5)C(=O)N5C[C@H](O)CC5C(=O)N[C@@H](C)c5ccc(-c6scnc6C)cc5)CC4)CC3)cc2OC)ncc1Cl` (stereo partly drawn) [XL02049, (2S,4R)-1-((R)-3-((((1R,4R)-4-((4-(4-((5-chloro-4-(methylamino)pyrimidin-2-yl)amino)-3-methoxybenzoyl)piperazin-1-yl)methyl)cyclohexyl)methyl)thio)-2-(1-fluorocyclopropane-1-carboxamido)-3-methylbutanoyl)-4-hydroxy-N—((S)-1-(4-(4-methylthiazol-5-yl)phenyl)ethyl)pyrrolidine-2-carboxamide]: the DC50 in assay [1] came to 40 nM; in assay [2], 27 nM. The figures for the Dmax in assay [1] and in assay [2] were 76.5% and 90%, respectively. The inhibition at 0.033 µM in assay [3] (33 nM/4 h treatment) was 0 to 70%; in assay [3] (33 nM/24 h treatment), 0 to 80%; in assay [4] (33 nM/4 h treatment), 0 to 90%; in assay [4] (33 nM/24 h treatment) it was 30 to 90%. In addition, the inhibition at 1 µM in assay [3] (1 μM/4 h treatment) is 80 to 100%; in assay [3] (1 μM/24 h treatment), 80 to 100%; in assay [5] (1 μM/4 h treatment) it was 10 to 100%; in assay [5] (1 μM/24 h treatment), 80 to 100%. The values for the EC50 in assay [3] and in assay [5] were 65 nM and 31 nM, respectively.
`CNc1nc(Nc2ccc(C(=O)N3CCN(C[C@H]4CC[C@@H](CSC(C)(C)[C@H](NC(=O)C5(F)CC5)C(=O)N5C[C@H](O)CC5C(=O)NCc5ccc(-c6scnc6C)cc5C)CC4)CC3)cc2OC)ncc1Cl` (stereo partly drawn) [XL02059, (2S,4R)-1-((R)-3-((((1s,4S)-4-((4-(4-((5-chloro-4-(methylamino)pyrimidin-2-yl)amino)-3-methoxybenzoyl)piperazin-1-yl)methyl)cyclohexyl)methyl)thio)-2-(1-fluorocyclopropane-1-carboxamido)-3-methylbutanoyl)-4-hydroxy-N-(2-methyl-4-(4-methylthiazol-5-yl)benzyl)pyrrolidine-2-carboxamide]: the greatest degradation seen (Dmax) in assay [1] was 77.5%; in assay [2], 76%. Moreover, the inhibition at 0.033 µM fell in the range of 0 to 70% in assay [3] (33 nM/4 h treatment), 0 to 80% in assay [3] (33 nM/24 h treatment), 0 to 90% in assay [4] (33 nM/4 h treatment) and 30 to 90% in assay [4] (33 nM/24 h treatment). Besides, the inhibition at 1 µM lay within 80 to 100% in assay [3] (1 μM/4 h treatment), 80 to 100% in assay [3] (1 μM/24 h treatment), 10 to 100% in assay [5] (1 μM/4 h treatment) and 80 to 100% in assay [5] (1 μM/24 h treatment). For the same compound, the 50% effective concentration (EC50) in assay [3] came out at 227 nM; in assay [5], 55 nM.
